# Assay results: a melting point compilation (Tetko et al.; mined from patent text by program, amines drawn as free bases though some values may be those of a salt)
row,melting point,SMILES
1,125 °C,CCC(C)N(C)C(=O)c1cc(-c2ccccc2)cc2ccccc12 (stereo not given)
2,> 300 °C,Cn1nc2ccc3nc(O)c(O)nc3c2n1
3,123 to 124 °C,CCC1(Cl)Cc2cc(OCCCC(=O)O)c(Cl)c(Cl)c2C1=O (stereo not given)
4,133 to 134 °C,CC=CC1=C(O)C(=O)c2ccccc2C1=O
5,192 to 193 °C,CCCCNC(=O)C(Cc1ccccc1)NC(=O)c1cc2cc(Cl)ccc2[nH]1 (stereo not given)
6,328 °C,CCc1cccc(C)c1CNc1cc(C(=O)O)cn2c(C)nnc12
7,194 to 195 °C,CCNC(=S)NS(=O)(=O)c1cc2c(cc1OC)OCC(NC(=O)c1cc(Cl)ccc1OC)C2 (stereo not given)
8,179 to 180 °C,COc1ccc(C(=O)O)c(C)c1OC
9,168 to 169 °C,Cn1cc(C(=O)C(=O)Oc2c(F)c(F)c(F)c(F)c2F)c2ccccc21
10,231 to 232 °C,CCn1nc2c(N)nc3ccccc3c2c1CC1(O)CCN(C(C)=O)CC1
11,139 to 140 °C,O=C(COc1ccc(C(=O)C(=O)O)cc1)NC1CCCCCCC1
12,186 °C,O=C(Nc1ccccc1S(=O)(=O)c1ccccc1)N[C@@H](Cc1ccc(OC(=O)c2c(Cl)cncc2Cl)cc1)C(=O)O
13,76 to 78 °C,CCOCC1(O)CCN(c2ccc(N3C[C@H](CNC(C)=O)OC3=O)cc2F)CC1
14,104 to 107 °C,CCOC(=O)c1cccn1Cc1ccc(Cl)cc1N
15,159 to 160 °C,COc1ccc(C(=O)CC(C)(C)C(=O)O)c2c1OC(C)(C)C2
16,99 to 102 °C,COc1ccc(-c2cc(C(C)(C)CC(C)(C)C)cc(-n3nc4ccc(C(F)(F)F)cc4n3)c2O)cc1
17,68 to 70 °C,CCCCCC(=O)c1cc(Cl)ccc1N(CC(=O)OC)S(=O)(=O)c1ccc(C)cc1
18,192 to 194 °C,COc1c(N2C[C@@H](N)[C@@H](C)C2)c(F)cc2c(=O)c(C(=O)O)cn(C3CC3)c12 (relative stereo)
19,167 to 168 °C,COCOc1ccccc1-c1cc(-c2cccc(C(=O)NC3CCCN(C(=O)OC(C)(C)C)C3)c2)c(C#N)c(NC(=O)c2cccs2)n1 (stereo not given)
20,130 to 134 °C,Cc1ccccc1C(CCC(=O)O)Oc1cc(OCc2cccnc2)ccc1C#N (stereo not given)
21,110 °C,CC(=O)Nc1c(C)cccc1CCC(=O)O
22,150 to 151 °C,Cc1ccc2c(n1)Oc1ccc(C(C)C(=O)OCC(=O)N(C)C)cc1C2 (stereo not given)
23,130 °C,COc1cc2c(c(OC)c1OC)COc1c(C(F)(F)F)nn(-c3ccc(S(N)(=O)=O)cc3)c1-2
24,136 to 140 °C,CCN1CCC(CNC(=O)c2cc(Cl)c(N)[nH]c2=O)CC1
25,185 to 190 °C,NCCNCCNc1ccc2c3c(nn2CCO)-c2c(O)ccc(O)c2C(=O)c13
26,191 to 193 °C,COc1cc(N)c(Cl)cc1C(=O)NCC1CCN(CCC(=O)c2ccc(O)cc2)CC1
27,194 to 196 °C,CCCC(=O)ONC(=N)c1ccc(NC(=O)CCCC(=O)Nc2ccc(C(=N)NOC(=O)CCC)cc2)cc1
28,207 to 208 °C,CCc1cc(Br)c2c(O)c(C(=O)OC)c(C(=O)OC)nc2c1
29,228 to 231 °C,CC(C)(C)c1nn(-c2c(Cl)cc(C(F)(F)F)cc2Cl)c(N)c1Br
30,118 to 120 °C,COc1cccc(NC(=O)C(C)Oc2ccc(Oc3ccc(C#N)cc3)cc2)c1 (stereo not given)

# More lines, now with the values behind:
row,SMILES,melting point
1,O=C(CCCN1CCC(c2ccc(Cl)cc2)CC1)c1ccc2c(c1)CCN(Cc1ccccc1)CC2,99 to 100 °C
2,N#Cc1c(N2CCN(C(=O)C3CCCS3)CC2)c2ccccc2n(Cc2ccc(F)cc2)c1=O (stereo not given),133 to 140 °C
3,NN1C(=O)C(C(=O)C(Cc2ccc3ccccc3c2)NC(=O)OCc2ccccc2)C1Oc1ccccc1 (stereo not given),205 to 206 °C
4,CCCN(C1=C(O)CC(C2CCCC2)(C2CCCC2)OC1=O)c1cccc(N)c1,173 to 175 °C
5,CCNC(=O)ON=C1CCOc2ccccc21,110 to 111 °C
6,O=C(O)c1ccc(OCCCCl)cn1,120 to 121 °C
7,CC(C)C(NC(=O)c1ccc(C(=O)NC(CCC(=O)O)C(=O)O)cc1)C(=O)N1CCCC1C(=O)NC(C(=O)C(F)(F)F)C(C)C (mixture of isomers),74 to 76 °C
8,O=C(O)c1cncn1C(c1ccccc1)C1CCCCC1 (stereo not given),250 °C
9,Ic1ccc(Cc2cc(I)c(Cc3ccc(I)cc3)cc2I)cc1,210 to 213 °C
10,O=Cc1ccc(-c2ccc(OCc3ccccc3)cc2)cc1,122 to 123 °C
11,CC(=O)N1CCC(Oc2cccc(C(F)(F)F)c2)(c2ccccc2)CC1,100 to 103 °C
12,CC1(C)CC(=O)C(C(=O)Nc2ccc(Cl)c(C(F)(F)F)c2)C(=O)C1,128 to 131 °C
13,FC(F)(F)Oc1ccc2nc(COc3ccccc3)[nH]c2c1,65 to 66 °C
14,O=C(c1ccc(F)cc1)C1CCN(CCO)CC1,45 to 47 °C
15,N#Cc1ccc2[nH]cc([C@H]3CC[C@@H](N4CC(Oc5cccc(F)c5)C4)CC3)c2c1,187 to 190 °C
16,O=C1c2cc([N+](=O)[O-])cc([N+](=O)[O-])c2OC12CC2,158 to 161 °C
17,O=C(NCC12CC3CC(CC(C3)C1)C2)c1cccc([N+](=O)[O-])c1Cl,185 °C
18,Cc1ccccc1C(=O)N[C@@H]1CCc2cccc(N3CCN(C)CC3)c2C1,179 to 180 °C
19,CN(C)C1=NCc2ccc(Cl)cc2O1,118 to 120 °C
20,ClCSc1nc(Cl)c(Cl)nc1Cl,68 to 70 °C

row,SMILES,melting point
1,CCCCCCCCCCCCc1ccc(S(=O)(=O)Nc2nnc(CO)s2)cc1,138 to 139 °C
2,OC(CNC12N=CN=CC1=NC=N2)CN1CCN(C(c2ccc(F)cc2)c2ccc(F)cc2)CC1 (stereo not given),140 to 170 °C
3,CCN(C)c1nc2sc3c(NCCN4CCOCC4)ncnc3c2c2c1CCC(C)(C)C2,144 °C
4,CCOP(=O)(OCC)C(CCC(C(N)=O)P(=O)(OCC)OCC)C(N)=O (stereo not given),232 to 234 °C
5,Cc1cccc(C2(O)CCC(=O)N2C)c1 (stereo not given),128 to 130 °C
6,O=C(O)CSc1nc(-c2ccccc2)ns1,97 °C
7,Cc1cc(=O)c(-c2ccc(F)cc2)c(C)o1,114 to 115 °C
8,CN1c2ccc(C(C)(C)C)cc2[C@H]2Cc3ccccc3[C@H]21 (relative stereo),74 °C
9,O=C1C(Cc2ccccc2)SC(=S)N1c1nc2ccccc2s1 (stereo not given),187 to 189 °C
10,CC(CSC(=S)c1ccc(F)cc1)C(=O)N1CCCC1C(=O)O (stereo not given),114 to 115 °C
11,CO/N=C(/C(N)=O)c1ccccc1Oc1ccccc1,98 to 99 °C
12,CC(C)(C)OC(=O)CN1CC(c2ccc(F)cc2)CCC(N=[N+]=[N-])C1=O (stereo not given),136 to 137 °C
13,Nc1ccc(-c2noc(-c3cnn4c(C(F)(F)F)cc(-c5ccc(Cl)c(Cl)c5)nc34)n2)cn1,289 °C
14,CC1=CCC2(C)C(CCC3C4CCC(=O)C4(C)CCC32)C1 (stereo not given),124 to 126 °C
15,Oc1cccnc1CC1(O)CN2CCC1CC2 (stereo not given),270 to 272 °C
16,C=CCn1c(N)cc(=O)n1-c1ccccc1,184 to 185 °C
17,CS(=O)(=O)Nc1cccc(Nc2nc(N3CCN(c4ccncc4)CC3)c3nc[nH]c3n2)c1,227 to 230 °C
18,CCN(CC)CCOc1ccc(Nc2nccc(-c3cccnc3)n2)cc1,87 to 89 °C
19,O=Cc1cccc(Oc2cccc(F)c2)n1,42 to 43 °C
20,CC(C)c1ccccc1Sc1c(O)cc(-c2cc(Cl)cc(Cl)c2)oc1=O,168 to 169 °C
